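The compound was tested at five concentrations on cells cultured in 96-well plates, with a 48-hour exposure period. GI50 marks 50% less growth.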 Activity calls are given as the source filed them. Cut-off read from the data, not from the text of the source: active = GI50 up to about 1.1 µM and inactive = higher.
Assays:
Test in all cases: NCI anticancer screen, dose series, 48 h
UACC-257 = tested on: UACC-257
SK-OV-3 = tested on: SK-OV-3
OVCAR-3 = tested on: OVCAR-3
HOP-92 = tested on: HOP-92
A498 = tested on: A498
SN12C = tested on: SN12C
OVCAR-8 = tested on: OVCAR-8
EKVX = tested on: EKVX
RXF 393 = tested on: RXF 393
SF-295 = tested on: SF-295
TK-10 = tested on: TK-10
T47D = tested on: T47D
HCT-116 = tested on: HCT-116
HCT-15 = tested on: HCT-15
SR = tested on: SR
SNB-19 = tested on: SNB-19
DU-145 = tested on: DU-145
NCI-H522 = tested on: NCI-H522
SF-268 = tested on: SF-268
SNB-75 = tested on: SNB-75

SMILES	GI50 (UACC-257)	GI50 (SK-OV-3)	GI50 (OVCAR-3)	GI50 (HOP-92)	GI50 (A498)	GI50 (SN12C)	GI50 (OVCAR-8)	GI50 (EKVX)	GI50 (RXF 393)	GI50 (SF-295)	GI50 (TK-10)	GI50 (T47D)	GI50 (HCT-116)	GI50 (HCT-15)	GI50 (SR)	GI50 (SNB-19)	GI50 (DU-145)	GI50 (NCI-H522)	GI50 (SF-268)	GI50 (SNB-75)
CC1(C)CCC(=O)NC1CC(=O)CC1NC(=O)CCC1(C)C (stereo not given)	> 100 µM (inactive)	> 100 µM (inactive)	> 100 µM (inactive)	> 100 µM (inactive)	> 100 µM (inactive)	> 100 µM (inactive)	> 100 µM (inactive)	> 100 µM (inactive)	> 100 µM (inactive)	> 100 µM (inactive)	> 100 µM (inactive)	> 100 µM (inactive)	> 100 µM (inactive)	> 100 µM	7.08 µM (inactive)	> 100 µM (inactive)	> 100 µM (inactive)	> 100 µM (inactive)	> 100 µM (inactive)	> 100 µM (inactive)
COc1ccc(-c2cn3c(n2)sc2cc(C)ccc23)cc1	3.9 µM (inactive)	22.1 µM (inactive)	7.14 µM (inactive)	2.86 µM (inactive)	21.3 µM (inactive)	23.7 µM (inactive)	8.17 µM (inactive)	4.73 µM (inactive)	16.6 µM (inactive)	16.8 µM (inactive)	22.1 µM (inactive)	3.33 µM (inactive)	13.2 µM (inactive)	38.5 µM	4.86 µM (inactive)	12.5 µM (inactive)	23.2 µM (inactive)	5.55 µM (inactive)	22.8 µM (inactive)	17.4 µM (inactive)
CCn1c(=O)c2c3ccc(O)cc3oc2c2ccc(O)cc21	> 100 µM (inactive)	38.5 µM (inactive)	42.7 µM (inactive)	57.9 µM (inactive)	25.4 µM (inactive)	41.5 µM (inactive)	50.6 µM (inactive)	3.55 µM (inactive)	53.7 µM (inactive)	52.4 µM (inactive)	44 µM (inactive)	18.1 µM (inactive)	27.2 µM (inactive)	39.4 µM	27.6 µM (inactive)	43.8 µM (inactive)	47.8 µM (inactive)	40.1 µM (inactive)	36.9 µM (inactive)	29.9 µM (inactive)
CCN(CC)CCN1CCN=c2c3cc(OC)ccc3n3cnc4ccc1c2c43	1.29 µM (inactive)	1.6 µM (inactive)	0.946 µM (active)	1.12 µM (inactive)	0.746 µM (active)	0.429 µM (active)	0.318 µM (active)	1.01 µM (active)	0.292 µM (active)	0.548 µM (active)	1.07 µM (active)	5.52 µM (inactive)	0.3 µM (active)	0.211 µM	0.174 µM (active)	0.481 µM (active)	0.7 µM (active)	1.49 µM (inactive)	0.466 µM (active)	0.714 µM (active)
C=C(Cl)C(Cl)(CBr)CCCC(C)(C)Cl (stereo not given)	3.15 µM (inactive)	> 100 µM (inactive)	2.47 µM (inactive)	2.41 µM (inactive)	19.8 µM (inactive)	60.8 µM (inactive)	18.7 µM (inactive)	18.5 µM (inactive)	17.7 µM (inactive)	7.55 µM (inactive)	2.26 µM (inactive)	1.8 µM (inactive)	14.1 µM (inactive)	26.3 µM	> 53 µM (inactive)	14.7 µM (inactive)	10.9 µM (inactive)	9.25 µM (inactive)	12.7 µM (inactive)	4.48 µM (inactive)
O=C(/C=C/c1ccc(O)c(O)c1)NC(COC(=O)/C=C/c1ccc(O)c(O)c1)C(=O)O (stereo not given)	> 100 µM (inactive)	> 100 µM (inactive)	> 100 µM (inactive)	> 100 µM (inactive)	> 100 µM (inactive)	> 100 µM (inactive)	> 100 µM (inactive)	> 100 µM (inactive)	> 100 µM (inactive)	> 100 µM (inactive)	> 100 µM (inactive)	> 100 µM (inactive)	> 100 µM (inactive)	> 100 µM	> 100 µM (inactive)	> 100 µM (inactive)	> 100 µM (inactive)	> 100 µM (inactive)	> 100 µM (inactive)	> 100 µM (inactive)

From ChEMBL document CHEMBL1201862, “PubChem BioAssay data set” (2004)
